Data: the supplement of paper PMC10307832

Columns and labels:
Assay in all cases: relative viability (nuclei count vs DMSO), 5 days (fraction); higher = more cells survive
AZD8055 + Bortezomib = compound: COc1ccc(-c2ccc3c(N4CCOC[C@@H]4C)nc(N4CCOC[C@@H]4C)nc3n2)cc1CO [AZD8055] + CC(C)C[C@H](NC(=O)[C@H](Cc1ccccc1)NC(=O)c1cnccn1)B(O)O [Bortezomib] (partner 0.002 µM)
Summary of the method: (§1)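 Cells from lung cancer lines were seeded into 1536-well plates and, one day later, dosed by pin tool. Treatments were either a single drug or a fixed dose of an anchor drug with five library-drug doses (not always all listed) in √10 steps. After 5 days, nuclei were stained in a one-step fixation (final 0.05% Triton X-100, 1% formaldehyde, 1 ug/ml Hoechst) and counted on 4× images, and relative viability is the treated-to-vehicle nuclei ratio, as the median of duplicate plates.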

AZD8055 + Tozasertib = compound: COc1ccc(-c2ccc3c(N4CCOC[C@@H]4C)nc(N4CCOC[C@@H]4C)nc3n2)cc1CO [AZD8055] + Cc1cc(Nc2cc(N3CCN(C)CC3)nc(Sc3ccc(NC(=O)C4CC4)cc3)n2)n[nH]1 [Tozasertib] (partner 0.1 µM)
Summary of the method: as §1

AZD8055 + AZD7762 = compound: COc1ccc(-c2ccc3c(N4CCOC[C@@H]4C)nc(N4CCOC[C@@H]4C)nc3n2)cc1CO [AZD8055] + NC(=O)Nc1cc(-c2cccc(F)c2)sc1C(=O)N[C@H]1CCCNC1 [AZD7762] (partner 0.2 µM)
Summary of the method: as §1

AZD8055 + Decitabine = compound: COc1ccc(-c2ccc3c(N4CCOC[C@@H]4C)nc(N4CCOC[C@@H]4C)nc3n2)cc1CO [AZD8055] + Nc1ncn([C@H]2C[C@H](O)[C@@H](CO)O2)c(=O)n1 [Decitabine] (partner 2 µM)
Summary of the method: as §1

Cell Line | relative viability (AZD8055 + Bortezomib; first compound 0.01 µM) | relative viability (AZD8055 + Bortezomib; first compound 0.03162 µM) | relative viability (AZD8055 + Bortezomib; first compound 0.1 µM) | relative viability (AZD8055 + Bortezomib; first compound 0.3162 µM) | relative viability (AZD8055 + Bortezomib; first compound 1 µM) | relative viability (AZD8055 + Tozasertib; first compound 0.01 µM) | relative viability (AZD8055 + Tozasertib; first compound 0.03162 µM) | relative viability (AZD8055 + Tozasertib; first compound 0.1 µM) | relative viability (AZD8055 + Tozasertib; first compound 0.3162 µM) | relative viability (AZD8055 + Tozasertib; first compound 1 µM) | relative viability (AZD8055 + AZD7762; first compound 0.01 µM) | relative viability (AZD8055 + AZD7762; first compound 0.03162 µM) | relative viability (AZD8055 + AZD7762; first compound 0.1 µM) | relative viability (AZD8055 + AZD7762; first compound 0.3162 µM) | relative viability (AZD8055 + AZD7762; first compound 1 µM) | relative viability (AZD8055 + Decitabine; first compound 0.01 µM) | relative viability (AZD8055 + Decitabine; first compound 0.03162 µM) | relative viability (AZD8055 + Decitabine; first compound 0.1 µM) | relative viability (AZD8055 + Decitabine; first compound 0.3162 µM) | relative viability (AZD8055 + Decitabine; first compound 1 µM)
LCLC-97TM1 | 0.524 | 0.417 | 0.345 | 0.103 | 0.162 | 0.207 | 0.157 | 0.128 | 0.118 | 0.137 | 0.23 | 0.176 | 0.173 | 0.145 | 0.11 | 0.239 | 0.184 | 0.17 | 0.133 | 0.147
HARA | 1.12 | 1.23 | 1.11 | 0.725 | 0.54 | 0.103 | 0.162 | 0.0997 | 0.0987 | 0.0859 | – | 0.384 | 0.406 | 0.487 | 0.306 | – | 0.355 | 0.414 | 0.321 | 0.357
HCC-78 | 0.561 | 0.466 | 0.423 | 0.274 | 0.288 | 0.475 | 0.404 | 0.341 | 0.299 | 0.232 | 0.658 | 0.541 | 0.47 | 0.347 | 0.269 | 0.729 | 0.437 | 0.564 | 0.381 | 0.412
NCI-H1666 | 0.932 | 0.65 | 0.62 | 0.483 | 0.469 | 0.623 | 0.862 | 0.589 | 0.523 | 0.51 | 0.945 | 1.09 | 0.908 | 0.76 | 0.698 | 0.744 | 0.685 | 0.627 | 0.702 | 0.685
NCI-H2347 | 0.704 | 0.944 | 0.598 | 0.438 | 0.401 | 0.543 | 0.515 | 0.519 | 0.305 | 0.252 | 0.781 | 0.614 | 0.633 | 0.449 | 0.281 | 0.625 | 0.533 | 0.533 | 0.495 | 0.374
NCI-H838 | 1.37 | 0.513 | 0.302 | 0.227 | 0.298 | 0.293 | 0.27 | 0.248 | 0.184 | 0.204 | 1.06 | 0.932 | 0.85 | 0.711 | 0.659 | 0.513 | 0.343 | 0.305 | 0.278 | 0.296
NCI-H2023 | 0.837 | 0.664 | 0.356 | 0.136 | 0.137 | 0.314 | 0.325 | 0.258 | 0.115 | 0.109 | – | – | – | – | – | 0.243 | 0.161 | 0.175 | 0.129 | 0.118
201T | 1.12 | 1.1 | 1.11 | 0.881 | 0.811 | 0.98 | 0.895 | 0.813 | 0.529 | 0.595 | 0.621 | 0.413 | 0.5 | 0.362 | 0.374 | 0.863 | 0.711 | 0.692 | 0.579 | 0.527
